Some test systems named below: BT-549 breast; COLO 205 colon; DU-145 prostate; HCT-116 colon; MCF7 breast; SF-295 CNS; SK-MEL-28 melanoma; SN12C renal; SNB-75 CNS; UACC-257 melanoma.
Common to all, as to test: NCI tumour cell line growth inhibition, 48 h

Where “and” joins values, the source holds several entries; their conditions need not be identical. Equal values may be shown once.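 96-well plates; 48 h exposure; 5 concentrations. Endpoints by linear interpolation between flanking doses. Not reached: highest tested concentration assigned. Abbreviation: GI50, concentration required for 50% inhibition of growth. TGI marks complete inhibition of growth.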

On to `COc1cc2c3c(n(CCCN)c(=O)c2cc1OC)-c1ccc([N+](=O)[O-])cc1C3=O`, for which the GI50 is 13.4 µM with BT-549 breast; 10.1 µM in the assay on COLO 205 colon; 2.11 µM in the assay on DU-145 prostate; 1.32 µM with HCT-116 colon; 0.317 µM in the assay on MCF7 breast; 0.912 µM with SF-295 CNS. Also, the GI50 with SK-MEL-28 melanoma is 17.8 µM; in the assay with SN12C renal, 11.7 µM; in the assay with SNB-75 CNS it was 16.3 µM; in the assay on UACC-257 melanoma, 31 µM. For the same compound, the TGI turned out to be 28 µM in the assay on BT-549 breast; 22.8 µM with COLO 205 colon; 10.6 µM in the assay with DU-145 prostate; 2.74 µM with HCT-116 colon; 1.96 µM in the assay on MCF7 breast; 17.9 µM with SF-295 CNS. Moreover, the TGI is 34.3 µM in the assay on SK-MEL-28 melanoma, 27.6 µM with SN12C renal, 34.7 µM in the assay with SNB-75 CNS and greater than 100 µM with UACC-257 melanoma.

As to `c1ccc(-c2nn3c(c2-c2ccnc4cc(OCCN5CCOCC5)ccc24)CCC3)nc1`, the GI50 in the assay on BT-549 breast is greater than 79.9 µM; in the assay with COLO 205 colon, 41.6 µM; in the assay with DU-145 prostate, 75.2 µM; with HCT-116 colon it was 31 µM; with MCF7 breast, 12.9 µM; in the assay on SF-295 CNS, greater than 100 µM. Also, the GI50 in the assay on SK-MEL-28 melanoma is greater than 100 µM; in the assay with SN12C renal, 50.4 µM; in the assay with SNB-75 CNS it was 59 µM; in the assay on UACC-257 melanoma, greater than 100 µM. The TGI with BT-549 breast, in the assay with COLO 205 colon, in the assay with DU-145 prostate, in the assay with HCT-116 colon, in the assay on MCF7 breast and in the assay on SF-295 CNS was greater than 100 µM each time. Moreover, the TGI in the assay on SK-MEL-28 melanoma, in the assay with SN12C renal, in the assay on SNB-75 CNS and in the assay with UACC-257 melanoma was greater than 100 µM throughout.

As for `COc1ccc(/C=C(/c2ccccc2)[N+](=O)[O-])c(OC)c1`, the GI50 with BT-549 breast is 1.48 µM; in the assay with COLO 205 colon, 2.04 µM; in the assay on DU-145 prostate it was 1.44 µM; in the assay on HCT-116 colon, 1.02 µM; in the assay with SF-295 CNS, 1.97 µM; in the assay with SK-MEL-28 melanoma, 1.5 µM. Moreover, the values for the GI50 in the assay with SN12C renal, in the assay with SNB-75 CNS and in the assay on UACC-257 melanoma were 1.47 µM, 0.363 µM and 1.55 µM, respectively. Moreover, the TGI in the assay with BT-549 breast amounted to 2.89 µM; with COLO 205 colon it was 4.28 µM; with DU-145 prostate, 2.92 µM; with HCT-116 colon, 2.29 µM; in the assay with SF-295 CNS it was 3.86 µM; with SK-MEL-28 melanoma, 3.03 µM. The TGI in the assay on SN12C renal was determined as 3 µM; in the assay with SNB-75 CNS, 1.84 µM; in the assay with UACC-257 melanoma, 3.38 µM.

On to `C=C(C)[C@@H]1CCC=C2CC[C@]3(C)[C@H](CC[C@@H]4[C@@]5(C)CCCNC(C)(C)[C@@H]5CC[C@]43C)[C@H]21`, for which the GI50 in the assay on BT-549 breast was 4.5 µM; in the assay on COLO 205 colon it was 1.9 µM; in the assay on DU-145 prostate, 1.86 µM; with HCT-116 colon, 1.79 µM; with SF-295 CNS, 1.69 µM; in the assay on SK-MEL-28 melanoma, 2.03 µM. Further, the figures for the GI50 in the assay with SN12C renal, with SNB-75 CNS and with UACC-257 melanoma were 1.79 µM, 1.67 µM and 3.34 µM, respectively. The TGI amounted to 20.7 µM with BT-549 breast; 3.65 µM in the assay on COLO 205 colon; 3.57 µM with DU-145 prostate; 3.2 µM in the assay on HCT-116 colon; 3.13 µM in the assay on SF-295 CNS; 4.07 µM in the assay on SK-MEL-28 melanoma. The figures for the TGI with SN12C renal, in the assay with SNB-75 CNS and in the assay with UACC-257 melanoma were 3.48 µM, 3.94 µM and 9.32 µM, respectively.

Turning to `O=C(O)C[C@H](O)C[C@H](O)/C=C/c1c(C2CC2)nc2ccccc2c1-c1ccc(F)cc1`, the GI50 with BT-549 breast was 18.1 µM and 4.11 µM; with COLO 205 colon, 43.3 µM and 8.98 µM; in the assay with DU-145 prostate it was > 100 µM and 31 µM; with HCT-116 colon it was 5.8 µM and 1.25 µM; in the assay with MCF7 breast, 54.7 µM and > 21.9 µM; in the assay with SF-295 CNS, 2.1 µM and 0.526 µM. The GI50 was 27.4 µM and 7.7 µM in the assay with SK-MEL-28 melanoma; 2.4 µM and 0.668 µM in the assay with SN12C renal; greater than 100 µM with UACC-257 melanoma. Moreover, the TGI in the assay with BT-549 breast, in the assay on COLO 205 colon, in the assay on DU-145 prostate, in the assay on HCT-116 colon, in the assay on MCF7 breast and in the assay on SF-295 CNS was greater than 100 µM throughout. The TGI in the assay on SK-MEL-28 melanoma, in the assay on SN12C renal and in the assay on UACC-257 melanoma was greater than 100 µM in each case.

As to `CNC(=O)NCC1OC(n2cnc3c(NC(=O)Nc4ccccc4)ncnc32)C(O[Si](C)(C)C(C)(C)C)C1O[Si](C)(C)C(C)(C)C` (stereo not given), the GI50 with BT-549 breast is 2.94 µM; in the assay with COLO 205 colon, 1.89 µM; with DU-145 prostate, 2.58 µM; in the assay with HCT-116 colon, 2.11 µM; in the assay on MCF7 breast it was 2.69 µM; with SF-295 CNS, 3.84 µM. Besides, the figures for the GI50 in the assay with SN12C renal, in the assay with SNB-75 CNS and in the assay on UACC-257 melanoma were 1.81 µM, 2.43 µM and 3.78 µM, respectively. The TGI was 8.18 µM in the assay with BT-549 breast; 3.36 µM in the assay with COLO 205 colon; 5.71 µM with DU-145 prostate; 4.31 µM with HCT-116 colon; 19.4 µM in the assay with MCF7 breast; 31.8 µM in the assay on SF-295 CNS. Besides, the TGI was 3.38 µM in the assay on SN12C renal, 34.1 µM in the assay on SNB-75 CNS and 20.2 µM in the assay with UACC-257 melanoma.

As for `COc1cc2c(cc1OC)-c1ncc3c(OC)ccc(OC)c3c1C2`, the GI50 in the assay on BT-549 breast is 11.1 µM; in the assay on COLO 205 colon, 42.7 µM; in the assay on DU-145 prostate, 28.1 µM; in the assay with HCT-116 colon it was 17.8 µM; with SF-295 CNS, 12.1 µM; in the assay with SK-MEL-28 melanoma, greater than 100 µM. The GI50 was 14.8 µM with SN12C renal, greater than 100 µM in the assay on SNB-75 CNS and 19.7 µM in the assay on UACC-257 melanoma. The TGI in the assay on BT-549 breast was 32.5 µM; in the assay on COLO 205 colon, greater than 100 µM; in the assay with DU-145 prostate, greater than 100 µM; in the assay on HCT-116 colon, greater than 100 µM; with SF-295 CNS, 42.7 µM; in the assay on SK-MEL-28 melanoma, greater than 100 µM. Moreover, the values for the TGI with SN12C renal, in the assay on SNB-75 CNS and in the assay on UACC-257 melanoma were 58 µM, greater than 100 µM and 55.4 µM, respectively.

(Values after PubChem BioAssay (NCI).)
